In ChEMBL document CHEMBL5244246, “Recent advances in chemistry and bioactivity of marine cyanobacteria Moorea species” (Eur J Med Chem, 2020):
pIC50: −log10 of the molar value. ≈ marks a conversion by molar mass, not a printed value.

Assays:
[1] = Toxicity in brine shrimp assessed as lethal dose; details: artemia salina
Tubulin = assay: Inhibition of tubulin polymerization (unknown origin) by tubulin polymerization assay; type: protein-complex assay, Homo sapiens
CA46 = assay: Cytotoxicity against human CA46 cells assessed as inhibition of cell growth; type: functional, cell-based
L1210 = assay: Cytotoxicity against mouse L1210 cells assessed as inhibition of cell growth; type: functional, cell-based
[2] = Antiproliferative activity against CHO-AUXB1 cells; type: toxicity, cell-based; details: Chinese hamster (Cricetulus griseus)
Tubulin (Homo sapiens) = Tubulin (Homo sapiens) (UniProt P68371+Q9H4B7+P0DPH7+P68366+Q13509+Q71U36+P04350+Q3ZCM7+P07437+P68363+Q9BQE3+Q6PEY2+Q13885+Q9BVA1+Q9BUF5); assay: Inhibition of colchicine binding to tubulin (unknown origin) assessed inhibition rate at 5 uM relative to control; type: protein-complex assay
U-251 = assay: Cytotoxicity against human U-251MG cells; type: functional, cell-based
HCT-116 = assay: Cytotoxicity against human HCT-116 cells assessed as inhibition of cell growth; type: functional, cell-based
[3] = Toxicity in brine shrimp; details: artemia salina; read-out: ED50 (the source's name)
[4] = Toxicity in goldfish assessed as lethal dose; details: carassius auratus
Echinoidea = assay: Antiproliferative activity against sea urchin fertilized embryo assessed as inhibition of cell division; type: functional, organism-based
Neuro2a = assay: Inhibition of sodium channel in mouse Neuro2a cells; type: cell-based
PC-3 = assay: Cytotoxicity against human PC-3 cells assessed as cell growth inhibition; type: functional, cell-based
Pseudomonas aeruginosa = assay: Antibacterial activity against Pseudomonas aeruginosa PA01 assessed as inhibition of swarming at 100 ppm relative to control; type: functional
P388 = assay: Cytotoxicity against mouse P388 cells assessed as inhibition of cell growth; type: functional, cell-based
HCT-8 = assay: Cytotoxicity against human HCT-8 cells assessed as cell growth inhibition; type: functional, cell-based
Plasmodium falciparum = assay: Antimalarial activity against Plasmodium falciparum assessed as growth inhibition; type: functional, organism-based
SK-OV-3 = assay: Cytotoxicity against human SK-OV-3 cells assessed as cell growth inhibition; type: functional, cell-based
A549 = assay: Cytotoxicity against human A549 cells assessed as cell growth inhibition; type: functional, cell-based
HeLa [5] = assay: Cytotoxicity against human HeLa cells assessed as inhibition of cell growth incubated for 48 hrs by WST-8 colorimetric assay; type: functional, cell-based
KB = assay: Cytotoxicity against human KB cells; type: functional, cell-based
N2a = assay: Cytotoxicity against mouse Neuro2a cells assessed as inhibition of cell growth; type: functional, cell-based; details: Mus musculus, N2a
LoVo = assay: Cytotoxicity against human LoVo cells; type: functional, cell-based
NCI-H460 = assay: Cytotoxicity against human NCI-H460 cells; type: functional, cell-based
Homo sapiens [6] = species: Homo sapiens; assay: Inhibition of Voltage-gated sodium channel (unknown origin) at 3 ug/ml incubated for 18 hrs by cell-based bioassay relative to control; details: dose 3.0 µg/ml
Homo sapiens [7] = species: Homo sapiens; assay: Activation of Voltage-gated sodium channel (unknown origin) at 3 ug/ml incubated for 18 hrs by cell-based bioassay relative to control; details: dose 3.0 µg/ml
[8] = Toxicity in mouse assessed as lethal dose; details: in vivo
MCF7 = assay: Cytotoxicity against human MCF7 cells assessed as inhibition of cell growth; type: functional, cell-based
[9] = Toxicity in brine shrimp assessed as lethality at 10 ppm relative to control; details: artemia salina, read-out: Activity
[10] = Toxicity in goldfish assessed as lethality at 5 ppm relative to control; details: carassius auratus, read-out: Activity
[11] = Toxicity in goldfish assessed as survival rate at 5 ppm measured after 90 mins relative to control; details: carassius auratus
PANC-1 = assay: Cytotoxicity against human PANC-1 cells; type: functional, cell-based
Nitzschia amabilis = assay: Growth inhibition of marine diatom assessed as inhibition; type: functional, organism-based
HeLa [12] = assay: Cytotoxicity against human HeLa cells assessed as inhibition of cell growth incubated for 72 hrs by MTT assay; type: functional, cell-based
[13] = read-out: LD50 (the source's name)

In the case of C=CCC(CC/C(C)=C/C=C/CC/C=C\C1CSC([C@@H]2C[C@@H]2C)=N1)OC (stereo partly specified), the LC50 ([1]; read-out: LC50) was 0.003 µg/mL, the pIC50 (Tubulin) was 6.16 and the pIC50 (CA46) was 6.70. The pIC50 (L1210) was 8.05, the IC50 [2] was 0.0068 µg/mL (≈ 0.0182 µM) and the inhibition (Tubulin (Homo sapiens)) was 94%.

In the case of CCCC[C@@H](C)C[C@@H](C)C(=O)N(C)[C@@H](Cc1ccc(OC)cc1)C(=O)N[C@H](C(=O)N(C)[C@H](C(=O)N1CCC[C@H]1C(=O)N1C(=O)C=C[C@@H]1C)C(C)C)[C@@H](C)OC(C)=O, the pIC50 (U-251) was 7.43.

For CCCCC(C)C1C[C@@H](O)CCC[C@H](O)C[C@@H](O)C[C@@H](O)CCCC(O)CCCC(O)CCCC(O)CCCC(O)CCCC(O)CC(C)CC(=O)O1 (stereo partly specified), the pIC50 (HCT-116) was 5.00.

For O=CNC(CCCC#CC=C(Cl)Cl)CCC/C=C/CC(Cl)Cl (stereo unspecified), the LC50 [1, 13] was 1.7 µg/mL and the LC50 [3] was 1 µg/mL (≈ 2.6 µM).

In the case of C=C[C@@H]1CSC(C[C@@H](C)[C@@H](C)C[C@H](C)CCN(C)C(=O)[C@H](C)CC)=N1, the LC50 [4] was 700 nM, the LC50 ([1]; read-out: LC50) was 170 nM and the pIC50 (Echinoidea) was 7.60. It also gave an INH (Neuro2a) of 1 nM.

With CC[C@@H](C)[C@@H]1NC(=O)CN(C)C(=O)[C@@H](Cc2ccccc2)N(C)C(=O)[C@H](C)NC(=O)[C@@H]([C@@H](C)CC)OC(=O)/C(C)=C/C[C@H](O)[C@@H](C)C[C@H]([C@@H](C)CC)OC(=O)[C@H](C)N(C)C1=O the pIC50 (PC-3) was 8.68, the inhibition at 100 µg/mL (Pseudomonas aeruginosa) was 49% and the pIC50 (P388) was 8.68. It also gave a pIC50 (HCT-8) of 8.68, a pIC50 (Plasmodium falciparum) of 6.54 and a pIC50 (SK-OV-3) of 8.68. The pIC50 (A549) was 8.68.

CC[C@@H](C)[C@H]1C(=O)N2CCC[C@H]2C(=O)O[C@H](C(C)(C)C)C[C@@H](C)C[C@H](O)[C@H](C)C2=N[C@@H](/C=C(\C)C(=O)N[C@@H](Cc3ccc(OC)cc3)C(=O)N(C)[C@@H](C)C(=O)N1C)CS2 gave a pIC50 (HeLa [5]) of 6.72, a pIC50 (KB) of 9.44 and a pIC50 (N2a) of 6.00. The pIC50 (LoVo) was 9.44.

With O=CNC(CCCC#CC=C(Cl)Cl)CCCCCCC(Cl)Cl (stereo unspecified) the LC50 [1, 13] was 1.7 µg/mL and the LC50 [3] was 1 µg/mL (≈ 2.58 µM).

In the case of CCCCCCCC[C@@H](C/C=C/CCC(=O)NC/C(=C/Cl)C1=CCC[C@@H](OC(C)=O)C1=O)OC, the pIC50 (NCI-H460) was 5.40, the inhibition (Homo sapiens [6]) was 28% and the Activity (Homo sapiens [7]) was 19%. For the same molecule, the pIC50 (N2a) was 5.40.

In the case of CC[C@H](C)[C@@H]1NC(=O)CNC(=O)c2csc(n2)[C@H](C(C)(C)O)OC(=O)C(C)(C)[C@H](CCCC(C)(Cl)Cl)OC(=O)c2csc1n2 [LYNGBYABELLIN A], the pIC50 (HCT-116) was 7.28 and the LD [8] was 2.4 mg/kg.

In the case of C=CCC(CC/C=C/C=C/CC/C=C\C1CSC([C@@H]2C[C@@H]2C)=N1)OC (stereo partly specified), the LC50 [1, 13] was 15600 nM, the pIC50 (MCF7) was 6.47 and the inhibition (Tubulin (Homo sapiens)) was 53%.

C=CCCC/C(=C/Cl)CCC(C)/C=C/CCC(=O)NCC/C(=C\C(=O)N1C(=O)C=C[C@@H]1C)OC (stereo partly specified) showed a pIC50 (NCI-H460) of 4.82, a mortality at 10 ppm [9] of 25% and a mortality at 5 ppm [10] of 100%. It also gave a pIC50 (N2a) of 4.82.

Work on C#CCCC/C(=C/Cl)CCC(C)/C=C/CCC(=O)NCC/C(=C\C(=O)N1C(=O)C=C[C@@H]1C)OC (stereo partly specified) yielded a pIC50 (NCI-H460) of 4.82, a survival at 1.5 h, 5 ppm [11] of 0% and a pIC50 (N2a) of 4.82.

C=C1CC(=O)N[C@@H](C)C(=O)N(C)[C@@H](C(C)C)C(=O)NCC(=O)O[C@@H](/C(C)=C/C(C)=C/C(C)(C)C)[C@@H]1C [ANTILLATOXIN] gave an LC50 [4] of 100 nM.

For CCCC[C@@H](C)C[C@@H](C)C(=O)N(C)[C@@H](Cc1ccc(OC)cc1)C(=O)N[C@H](C(=O)N(C)[C@H](C(=O)N1C[C@@H](O)C[C@H]1C(=O)N1C(=O)C=C[C@@H]1C)C(C)C)[C@@H](C)OC(C)=O, the pIC50 (PANC-1) was 9.49.

In the case of CC[C@H](C)[C@H]1C(=O)N2CCC[C@H]2C(=O)O[C@H](C(C)(C)C)C[C@@H](C)C/C=C/C2=N[C@@H](CCC(=O)N[C@@H](Cc3ccc(OC)cc3)C(=O)N(C)[C@@H](C)C(=O)N1C)CS2 [APRATOXIN E], the pIC50 (HCT-116) was 7.00.

For CO[C@@H](CC[C@H](C)[C@@H](O)[C@@H](C)/C=C/C1=C(C(=O)O[C@@H]2CC(=O)O[C@@H]2C)C(=O)[C@H](C)CC1(C)C)c1cc(O)ccc1Br, the IC50 (Nitzschia amabilis) was 1.2 µg/mL (≈ 1.89 µM) and the IC50 (L1210) was 4.6 µg/mL.

With O=CNC(CCCC#C/C=C\Cl)CCC/C=C\C=C(Cl)Cl (stereo unspecified) the LC50 [1, 13] was 1.7 µg/mL and the LC50 [3] was 1 µg/mL (≈ 2.87 µM).

With CC/C(=C\C(=O)N(C)/C=C\CCC[C@H]1CC[C@H](C)C[C@@H](C)C(=O)N(C)[C@@H](CC(C)C)C(=O)O1)OC the pIC50 (HeLa [12]) was 5.60.
